From article PMC4827351 (Chemical Science, 2015)

How the values were obtained:
[1] = tested on: L. monocytogenes ATCC 19115 invasion of human T84 colon epithelial cells; assay: Listeria invasion assay; format: cell-based, Listeria monocytogenes; conditions: proHD6 ≤10 µM, no trypsin, bacteria pre-incubated with peptide 30 min at room temperature, n = 3
Experimental: Fig. 5 Listeria invasion assays for native and cleaved proHD6. Invasion of human T84 colon epithelial cells by L. monocytogenes ATCC 19115 pre-treated with proHD6 in the absence and presence of 0.4 μM trypsin or HD6 (control). The bacteria (2 × 10^6 CFU mL^–1) were incubated with the indicated peptides for 30 min prior to the infection of the T84 cells (mean ± SDM, n = 3).
Concentrated (20×, 10 μL) solutions of HD6 and proHD6 were prepared in sterile Milli-Q water (0, 50, 100, and 200 μM). For conditions that required trypsin, a 1 mg mL^–1 stock solution of TPCK-treated trypsin (Worthington) in sterile Milli-Q water was added to the 20× proHD6 solutions to yield a final trypsin concentration of 0.01 mg mL^–1. A 190 μL aliquot of the diluted bacterial culture was added to each […] peptide solution and the resulting mixtures were incubated at room temperature for 30 min. The invasion assays were then performed by following a literature protocol.[15],[50] All invasion assays were conducted with at least two independently prepared and purified samples of each peptide and in three independent trials and the resulting averages with standard deviations are reported.

[2] = Sedimentation velocity analytical ultracentrifugation; format: physicochemical; conditions: SV-AUC; for s20,w: 42 000 rpm, 20 °C, A280, DCDT+; for MW (best-fit molecular mass) / D: DCDT+
Experimental: The experiments were set up as previously reported.[15] In one set of experiments, 10× concentrated proHD6 solutions in Milli-Q water (≈40 μL) were transferred to microcentrifuge tubes and lyophilized to dryness. […] The pH of each solution was measured to confirm that it remained unchanged. The samples were centrifuged at 42 000 rpm and 20 °C until sedimentation was complete. The absorption wavelength for optical detection was 280 nm. All SV experiments were conducted with at least two independently prepared and purified samples of each peptide and in at least two independent trials.
Additional SV experiments were conducted to evaluate the effect of buffer components on the sedimentation of proHD6. In all cases, the proHD6 samples (400 μL) were prepared as described above except that proHD6 was dissolved in 10 mM Tris–HCl or HEPES pH 7.4 to obtain a final peptide concentration of 50 μM.
The experimental sedimentation coefficients were calculated by fitting the time derivative of the sedimentation velocity (–dc/dt) data using DCDT+.[29],[54] The –dc/dt distribution was generated from 22 to 28 scans with a peak broadening limit of 40 kDa by using DCDT+.
Table S4. Calculated sedimentation coefficients of proHD6.a
Concentration Buffer pH s20,w (S) D (F) MW (kDa) Partial Specific
(µM) (10 mM) Volume (mL/g) […]
a All samples were prepared in the indicated buffer; NaP is sodium phosphate. The temperature was 20 °C. Data were obtained by analysis with the dc/dt method implemented in DCDT+ using 22- 28 scans with 40 kDa diffusion broadening maximum. Sedimentation coefficients are s20,w values, adjusted with a solvent density (ρ) of 0.99967 g/mL and a solvent viscosity (η) of 1.0061 cP. Viscosity units are in centipoise (cP) (1 poise = 1 gŸ[…]cm-1Ÿ[…]s-1). Sedimentation coefficients are in svedbergs (1 svedberg = 100 fs = 1 x 10-13 s). Diffusion coefficients correspond to the best-fit molecular mass in Fick units (1 Fick = 1 x 10-7 cm2/s). HEPES has a solvent density (ρ) of 0.99901 g/mL and a solvent viscosity (η) of 1.0104 cP at 20 °C. Tris-HCl has a solvent density (ρ) of 0.99851 g/mL and a solvent viscosity (η) of 1.0037 cP at 20 °C. The solvent densities, viscosities, and the partial specific volume values of proHD6 monomer and dimer were […]

[3] = proHD6 30 µM, 10 mM NaP pH 7.4, first 30 µM line
[4] = proHD6 30 µM, 10 mM NaP pH 7.4, second 30 µM line
[5] = proHD6 30 µM, 10 mM NaP pH 7.4, third 30 µM line
[6] = proHD6 50 µM, 10 mM HEPES pH 7.4
[7] = proHD6 50 µM, 10 mM NaP pH 7.4, first 50 µM line
[8] = proHD6 50 µM, 10 mM NaP pH 7.4, second 50 µM line
[9] = proHD6 50 µM, 10 mM Tris-HCl pH 7.4
[10] = proHD6 100 µM, 10 mM NaP pH 7.4
[11] = proHD6 120 µM, 10 mM NaP pH 7.4
[12] = proHD6 140 µM, 10 mM NaP pH 7.4

## EPLQAEDDPLQAKAYEADAQEQRGANDQDFAVSFAEDASSSLRALGSTRAFTCHCRRSCYSTEYSYGTCTVMGINHRFCCL (disulfide (positions not given here)) [proHD6, 81-residue propeptide of human α-defensin 6, recombinant, from His6-SUMO-proHD6]
[1]
  L. monocytogenes invasion into human intestinal epithelial cells: did not impair
[2]; [3]
  s20,w: 1.727 S
  MW (best-fit molecular mass): 14.3 kDa
[2]; [4]
  s20,w: 1.798 S
  D: 11.5 F
  MW (best-fit molecular mass): 12.8 kDa
[2]; [5]
  s20,w: 1.733 S
  D: 9.73 F
  MW (best-fit molecular mass): 14.5 kDa
[2]; [6]
  s20,w: 1.763 S
  D: 9.94 F
  MW (best-fit molecular mass): 14.4 kDa
[2]; [7]
  s20,w: 1.844 S
  D: 10.4 F
  MW (best-fit molecular mass): 14.4 kDa
[2]; [8]
  s20,w: 1.865 S
  D: 10.3 F
  MW (best-fit molecular mass): 14.8 kDa
[2]; [9]
  s20,w: 1.783 S
  D: 8.97 F
  MW (best-fit molecular mass): 16.1 kDa
[2]; [10]
  s20,w: 1.843 S
  D: 13.8 F
  MW (best-fit molecular mass): 10.9 kDa
[2]; [11]
  s20,w: 1.769 S
  D: 9.16 F
  MW (best-fit molecular mass): 15.7 kDa
[2]; [12]
  s20,w: 1.751 S
  D: 9.47 F
  MW (best-fit molecular mass): 15.0 kDa
[2]; proHD6 30 µM, 10 mM NaP pH 7.4, first 30 µM line, 1 Fick = 1 x 10-7 cm2/s
  D: 9.83 F
